Measurements: US10577395B2 (priority 2014, dated 2020)
Converted amounts (≈) assume the structure as drawn. Like-named read-outs stand apart in the source and are kept apart here. Marks after values point to notes of the source that are not given here.

Columns and labels:
[1] = Binding of model ligand 11 (Y = NH), association constant Ka; settings: ratio of Ka for ligand 11 to ligand 12
[2] = test system: vancomycin-resistant Enterococcus faecalis (VanA VRE, BM4166); assay: microbe, parasite or virus in culture; assay type: cell-based; settings: for MIC: Enterococcus faecalis, VRE
Description: (§1) Assays were carried out following the methods of Clinical and Laboratory Standards Institute; Methods for Dilution Antimicrobial Susceptibility Tests for Bacteria That Grow Aerobically; Approved Standard, […].; CLSI document M07-A8; Clinical and Laboratory Standards Institute: Wayne, Pa., 2009.
(§2) This diluted bacterial stock solution was then inoculated into a well of a V-shaped 96-well glass coated microtiter plate, supplemented with serial diluted aliquots of the antibiotic solution DMSO (4 μL), to achieve a total assay volume of 0.1 mL. The plate was then incubated at 37° C. for 18 hours, after which minimal inhibitory concentrations (MICs) were determined by monitoring the cell growth (observed as a pellet) in the wells. The lowest concentration of antibiotic (in μg/mL) capable of eliminating the cell growth in the wells is reported as the MIC.

[3] = cited from earlier work; for ligand, Ka (M^−1), 11, Y = NH: association constant, ligand 11 (Y = NH)
[4] = association constant, ligand 12 (Y = O); cited from earlier work
[5] = test system: vancomycin-resistant Enterococcus faecalis (VanA VRE, BM4166); settings: E. faecalis (BM4166, VanA VRE); earlier studies; cited from earlier work
[6] = test system: vancomycin-sensitive Staphylococcus aureus (VSSA strain ATCC 25923); assay: Antimicrobial assay, MIC, vancomycin-sensitive S. aureus; assay type: cell-based; settings: Staphylococcus aureus, ATCC 25923
Description: as §1, §2

[7] = test system: methicillin and oxacillin-resistant Staphylococcus aureus subsp. aureus (MRSA strain ATCC 43300); assay: Antimicrobial assay, MIC, MRSA; assay type: cell-based; settings: Staphylococcus aureus
Description: as §1, §2

[8] = test system: Enterococcus faecium (VanA VRE, ATCC BAA-2317); assay: Antimicrobial assay, MIC, VanA E. faecium; assay type: cell-based; settings: Enterococcus faecium
Description: as §1, §2

[9] = test system: vancomycin-resistant Enterococcus faecalis (VanB VRE, strain ATCC 51299); assay: microbe, parasite or virus in culture; assay type: cell-based; settings: Enterococcus faecalis
Description: as §1, §2

[10] = test system: VanA VRE; assay: Antimicrobial assay, MIC for VanA VRE; assay type: cell-based, E. faecalis and E. faecium
Description: as §1, §2

[11] = test system: panel of Gram-positive bacteria (VSSA, MRSA, VanA and VanB VRE); assay: Antimicrobial assay, MIC across the bacterial panel; assay type: cell-based, S. aureus, E. faecalis, E. faecium
Description: as §1, §2

CN[C@H](CC(C)C)C(=O)N[C@H]1C(=O)N[C@@H](CC(N)=O)C(=O)N[C@H]2C(=N)NC3C(=O)N[C@H](C(=O)N[C@H](C(=O)O)c4cc(O)cc(O)c4-c4cc3ccc4O)[C@H](O)c3ccc(c(Cl)c3)Oc3cc2cc(c3O)Oc2ccc(cc2Cl)[C@H]1O [Compound 9, [Ψ[C(═NH)NH]Tpg^4]vancomycin aglycon]
Ka(11/12) [1]: 1.05 | VanA MIC, μg/mL ([2]; E. faecalis (BM4166, VanA VRE), tested herein alongside Compounds 1-6): 1^b μg/mL | binding affinity for both target ligands relative to vancomycin aglycon with D-Ala-D-Ala ([3]; D-Ala-D-Ala and D-Ala-D-Lac): ≤ 2 fold | ligand, Ka (M^−1), 11, Y = NH [3]: 73000 M⁻¹ | ligand, Ka (M^−1), 12, Y = O [4]: 69000 M⁻¹

[Ψ[CH2NH]Tpg^4]vancomycin aglycon [Compound 10]
Ka(11/12) [1]: 0.9 | ligand, Ka (M^−1), 11, Y = NH [3]: 4800 M⁻¹ | ligand, Ka (M^−1), 12, Y = O [4]: 5200 M⁻¹ | VanA MIC [5]: 31 µg/mL

CN[C@H](CC(C)C)C(=O)N[C@H]1C(=O)N[C@@H](CC(N)=O)C(=O)N[C@H]2C(=S)NC3C(=O)N[C@H](C(=O)N[C@H](C(=O)O)c4cc(O)cc(O)c4-c4cc3ccc4O)[C@H](O)c3ccc(c(Cl)c3)Oc3cc2cc(c3O)Oc2ccc(cc2Cl)[C@H]1O [Compound 8, [Ψ[C(═S)NH]Tpg^4]vancomycin aglycon]
ligand, Ka (M^−1), 11, Y = NH [3]: 170 M⁻¹ | ligand, Ka (M^−1), 12, Y = O [4]: 11 M⁻¹ | VanA MIC [5]: >640 µg/mL

CN[C@H](CC(C)C)C(=O)N[C@H]1C(=O)N[C@@H](CC(N)=O)C(=O)N[C@H]2C(=O)N[C@H]3C(=O)N[C@H](C(=O)N[C@H](C(=O)O)c4cc(O)cc(O)c4-c4cc3ccc4O)[C@H](O)c3ccc(c(Cl)c3)Oc3cc2cc(c3O)Oc2ccc(cc2Cl)[C@H]1O [Compound 7, vancomycin aglycon]
Ka(11/12) [1]: 1400 | ligand, Ka (M^−1), 11, Y = NH [3]: 170000 M⁻¹ | ligand, Ka (M^−1), 12, Y = O [4]: 120 M⁻¹ | VanA MIC [5]: 640 µg/mL

CN[C@H](CC(C)C)C(=O)N[C@H]1C(=O)N[C@@H](CC(N)=O)C(=O)N[C@H]2C(=N)NC3C(=O)N[C@H](C(=O)N[C@H](C(=O)O)c4cc(O)cc(O)c4-c4cc3ccc4O)[C@H](O)c3ccc(c(Cl)c3)Oc3cc2cc(c3OC2OC(CO)C(O)[C@H](O)[C@@H]2O[C@H]2CC(C)(NCc3ccc(-c4ccc(Cl)cc4)cc3)[C@H](O)[C@H](C)O2)Oc2ccc(cc2Cl)[C@H]1O (stereo partly shown) [Compound 6, N-4-(4′-chlorobiphenyl)methyl [Ψ[C(═NH)NH]Tpg^4]-vancomycin]
MIC ([6]; ATCC25923, read-out: MIC, sensitive S. aureus, serum concentration 10%, 10%): 0.03 µg/mL (≈ 0.0182 µM) | MIC ([6]; ATCC25923, read-out: MIC, sensitive S. aureus, serum concentration 100%, 100%): 1 µg/mL (≈ 0.606 µM) | MIC ([6]; ATCC25923, 25%, read-out: MIC, sensitive S. aureus, serum concentration 25%): 0.12 µg/mL (≈ 0.0728 µM) | MIC ([6]; ATCC25923, read-out: MIC, sensitive S. aureus): 0.03 µg/mL (≈ 0.0182 µM) | MIC ([7]; read-out: MIC, MRSA S. aureus): 0.06 µg/mL (≈ 0.0364 µM) | MIC ([7]; read-out: MIC, MRSA S. aureus, serum concentration 10%): 0.06 µg/mL (≈ 0.0364 µM) | MIC ([7]; read-out: MIC, MRSA S. aureus, serum concentration 25%): 0.24 µg/mL (≈ 0.146 µM) | MIC ([7]; read-out: MIC, MRSA S. aureus, serum concentration 100%): 1 µg/mL (≈ 0.606 µM) | MIC ([8]; read-out: MIC, Van A E. faecium, serum concentration 10%): 0.005 µg/mL (≈ 0.00303 µM) | MIC ([8]; read-out: MIC, Van A E. faecium, serum concentration 25%): 0.06 µg/mL (≈ 0.0364 µM) | MIC ([8]; read-out: MIC, Van A E. faecium, serum concentration 100%): 0.5 µg/mL (≈ 0.303 µM) | MIC ([8]; read-out: MIC, VanA E. faecium): 0.005 µg/mL (≈ 0.00303 µM) | MIC ([2]; read-out: MIC, Van A E. faecalis, serum concentration 10%): 0.005 µg/mL (≈ 0.00303 µM) | MIC ([2]; read-out: MIC, Van A E. faecalis, serum concentration 25%): 0.06 µg/mL (≈ 0.0364 µM) | MIC ([2]; read-out: MIC, Van A E. faecalis, serum concentration 100%): 0.5 µg/mL (≈ 0.303 µM) | MIC ([2]; read-out: MIC, VanA E. faecalis): 0.005 µg/mL (≈ 0.00303 µM) | MIC ([9]; read-out: MIC, Van B E. faecalis, serum concentration 10%): 0.06 µg/mL (≈ 0.0364 µM) | MIC ([9]; read-out: MIC, Van B E. faecalis, serum concentration 25%): 0.12 µg/mL (≈ 0.0728 µM) | MIC ([9]; read-out: MIC, Van B E. faecalis, serum concentration 100%): 1 µg/mL (≈ 0.606 µM) | MIC ([9]; read-out: MIC, VanB E. faecalis): 0.06 µg/mL (≈ 0.0364 µM) | increase in activity against VanA VRE relative to vancomycin (Compound 1) [10]: 50,000 fold | MIC ([10]; Enterococcus, VRE, read-out: MIC against VanA VRE): 0.005 µg/mL (≈ 0.00303 µM) | improvement in activity against VanA VRE on introduction of the (4-chlorobiphenyl)methyl group ([10]; relative to the analogue without CBP group): 100 fold | potency relative to Compound 17, on average across the panel [11]: 15 fold
